Laboratory results as given in publication PMC11314621, “Cheminformatics-Guided Exploration of Synthetic Marine Natural Product-Inspired Brominated Indole-3-Glyoxylamides and Their Potentials for Drug Discovery” (Molecules, 2024).
Like-named read-outs stand apart in the source and are kept apart here.

Assays:
[1] = target: T1, porcine pancreatic elastase (Sus scrofa, UniProt P00772); assay: Serine protease assay, elastase; assay type: biochemical; conditions: remaining enzyme activity
T1 construct: high-purity porcine pancreatic elastase (Sigma, Melbourne, Victoria, Australia, E0258); purchased Sigma E0258
Description: (§1) Serine protease-inhibitory activities for 25–56 were determined in 96 well plates. Each inhibitor was initially tested in duplicate against elastase and chymotrypsin at 10 µM. […] Assays for the inhibition of elastase were undertaken using high-purity porcine pancreatic elastase (Sigma, Melbourne, Victoria, Australia, E0258) in an assay buffer of 50 mM Tris-HCl (pH 8.0) at room temperature. Dilutions of each inhibitor (originally resuspended in DMSO) were prepared in triplicate and then preincubated with 375 ng of elastase for 15 min at room temperature in a total reaction volume of 85 µL. Following this preincubation, 15 µL of 2 mM N-succinyl-Ala-Ala-Ala-p-nitroanilide (Sigma, S4760) in assay buffer was added to each well and kinetic measurement of absorbance at 405 nm (Tecan Spark Plate Reader, Zürich, Switzerland) was undertaken for 30 min. […] Dilutions of each inhibitor were prepared in triplicate and preincubated with 5 µg of chymotrypsin for 10 min at 37 °C in a total reaction volume of 75 µL. After preincubation, 25 µL of 2 mM N-succinyl-Gly-Gly-Phe-p-nitroanilide (Sigma, S1899) was added to each well and kinetic measurement of absorbance at 405 nm was undertaken for 30 min. Inhibitory activity was determined by comparison of the slope of the reaction curve for multiple dilutions of the inhibitor to that of an equivalent solvent control and expressed as IC50 ± standard deviation.

[2] = target: T2, α-chymotrypsin from bovine pancreas (Bos taurus, UniProt P00766); assay: Serine protease assay, chymotrypsin; assay type: biochemical; conditions: 10 µM; remaining enzyme activity
T2 construct: α-chymotrypsin from bovine pancreas (Sigma, C4129); purchased Sigma C4129; host or cells: bovine pancreas
Description: as §1

SARS-CoV-2 3CLpro = target: T3, SARS-CoV-2 3CLpro (Severe acute respiratory syndrome coronavirus 2, UniProt P0DTD1); assay: biochemical
T3 construct: Each well contained 25 nM of SARS-CoV-2 3CL^Pro and eCFP-Venus biosensor (500 nM)

P. falciparum Dd2 = assay: Antiplasmodial image-based assay, Dd2 strain; assay type: cell-based, Plasmodium falciparum; conditions: chloroquine-resistant P. falciparum strain Dd2; for IC50: Plasmodium falciparum, control compounds; for % Inhibition @ 60 µM, Dd2: 72 h
Description: (§2) An anti-plasmodial imaging assay reported by Duffy and Avery was used to examine the antiplasmodial activities of synthetic indoles 25, 26, 36, 37, 38, 40, 41, 43, 45, 46, 47, 48, 50 and 51. All compounds were diluted to […] in DMSO and tested at three increasing concentrations from 0.4 nM–40 μM per log dose in a 16-point CRC ([…]) parasite strains of Plasmodium falciparum. […] Normalised percent inhibition data was obtained using in-plate positive (4 μM DHA) and negative (0.4% DMSO) controls, which were then used to calculate IC50 values. Compounds were incubated in CellCarrier-384 well imaging plates in the presence of 2% parasitemia (3D7 or Dd2) at 0.3% hematocrit in a total assay volume of 50 μL for 72 h at 37 °C, 5% O2, 5% CO2 and 90% N2. After incubation, plates were stained with 4′,6-diamidino-2-phenylindole (DAPI) and imaged using an Opera Phenix high-content imaging system (Revvity, Mulgrave, Victoria, Australia). Images were analysed using Harmony (Revvity) software (version 3), while percent parasite inhibition was calculated using the minimum (0.4% DMSO) and (DHA). IC50 values were determined by plotting % inhibition against log dose and analysed using nonlinear regression and sigmoidal dose-response using GraphPad Prism version 6.

P. falciparum 3D7 = assay: Antiplasmodial image-based assay, 3D7 strain; assay type: cell-based, Plasmodium falciparum; conditions: chloroquine-sensitive P. falciparum strain 3D7; for inhibition / IC50: Plasmodium falciparum; for inhibition: 3D7, 72 h; for inhibition / % Inhibition @ 60 µM, 3D7: 60 µM, 72 h; for IC50: control compounds
Description: as §2

HEK293 cells = assay: HEK293 cell cytotoxicity; assay type: cell-based; conditions: human embryonic kidney cell line

T1 sequence (P00772 27-266): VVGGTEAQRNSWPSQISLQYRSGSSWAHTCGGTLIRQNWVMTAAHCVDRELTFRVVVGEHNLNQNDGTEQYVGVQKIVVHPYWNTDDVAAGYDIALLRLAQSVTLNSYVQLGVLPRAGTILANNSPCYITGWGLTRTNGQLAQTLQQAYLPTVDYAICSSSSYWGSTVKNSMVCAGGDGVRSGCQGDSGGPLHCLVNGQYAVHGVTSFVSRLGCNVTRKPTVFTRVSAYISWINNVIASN

Structure (SMILES)	% enzyme activity @ 10 µM, elastase [1] [%]	% enzyme activity @ 10 µM, chymotrypsin [2] [%]	% inhibition @ 20 µM, No DTT (SARS-CoV-2 3CLpro; 20 µM, no DTT) [%]	% inhibition @ 20 µM, DTT (SARS-CoV-2 3CLpro; 20 µM, with DTT (4 mM)) [%]	further results
C[C@@H](NC(=O)C(=O)c1c[nH]c2cc(Br)ccc12)C(=O)O [Compound 28, 6-bromoindolyl-3-glyoxyl-D-alanine]	107.4	92.1	1.7	0.8	–
C[C@H]1[C@@H](O)O[C@@H]2O[C@@]3(C)CC[C@H]4[C@H](C)CC[C@@H]1[C@@]24OO3 [Dihydroartemisinin, reference compound]	–	–	–	–	IC50 (P. falciparum Dd2): 1.7 nM; inhibition (P. falciparum 3D7): 100%; IC50 (P. falciparum 3D7): 1.3 nM
N=C(N)NCCC[C@@H](NC(=O)C(=O)c1c[nH]c2cc(Br)ccc12)C(=O)O [Compound 32, 6-bromoindolyl-3-glyoxyl-D-arginine]	102.3	99.2	3.0	0.8	–
CCc1nc(N)nc(N)c1-c1ccc(Cl)cc1 [Pyrimethamine, reference compound]	–	–	–	–	inhibition (P. falciparum 3D7): -10%; IC50 (P. falciparum 3D7): 14.1 nM
O=C(N[C@@H](CO)C(=O)O)C(=O)c1c[nH]c2cc(Br)ccc12 [Compound 44, 6-bromoindolyl-3-glyoxyl-L-serine]	99.0	97.1	7.3	2.9	–
COc1ccc(C[C@H](N)C(=O)N[C@H]2[C@@H](O)[C@H](n3cnc4c(N(C)C)ncnc43)O[C@@H]2CO)cc1 [Puromycin, reference compound]	–	–	–	–	IC50 (HEK293 cells; HEK293): 673 nM; IC50 (P. falciparum Dd2): 86.5 nM; IC50 (P. falciparum 3D7): 79.2 nM
C[C@H](NC(=O)C(=O)c1c[nH]c2cc(Br)ccc12)C(=O)O [Compound 27, 6-bromoindolyl-3-glyoxyl-L-alanine]	109.6	94.4	1.9	1.3	–
O=C(N[C@@H](CO)C(=O)O)C(=O)c1c[nH]c2ccc(Br)cc12 [Compound 43, 5-bromoindolyl-3-glyoxyl-L-serine]	101.4	96.1	105.5	2.0	% Inhibition @ 60 µM, HEK293 (HEK293 cells): 21.0%; % Inhibition @ 60 µM, Dd2 (P. falciparum Dd2): 1.0%; IC50 (SARS-CoV-2 3CLpro; no DTT): 1200 nM; % Inhibition @ 60 µM, 3D7 (P. falciparum 3D7): 1.0%
CC(C)[C@@H](NC(=O)C(=O)c1c[nH]c2cc(Br)ccc12)C(=O)O [Compound 56, 6-bromoindolyl-3-glyoxyl-D-valine]	104.4	94.0	6.8	2.7	–
O=C(N[C@@H](CSSC[C@H](NC(=O)C(=O)c1c[nH]c2ccc(Br)cc12)C(=O)O)C(=O)O)C(=O)c1c[nH]c2ccc(Br)cc12 [Compound 33, 5-bromoindolyl-3-glyoxyl-L-cystine]	–	–	–	–	remaining activity at 10 µM [1]: 107%; remaining activity at 10 µM [2]: 94.7%; inhibition at 20 µM (SARS-CoV-2 3CLpro; 20 µM, no DTT, read-out: % inhibition @ 20 µM, No DTT): 64.1%; inhibition at 20 µM (SARS-CoV-2 3CLpro; 20 µM, with DTT (4 mM), read-out: % inhibition @ 20 µM, DTT): 2%; IC50 (SARS-CoV-2 3CLpro; no DTT): 12500 nM
N=C(N)NCCC[C@H](NC(=O)C(=O)c1c[nH]c2cc(Br)ccc12)C(=O)O [Compound 31, 6-bromoindolyl-3-glyoxyl-L-arginine]	99.3	99.5	4.3	2.4	–
CC(C)[C@H](NC(=O)C(=O)c1c[nH]c2ccc(Br)cc12)C(=O)O [Compound 53, 5-bromoindolyl-3-glyoxyl-L-valine]	101.3	91.6	1.9	1.3	–
CCN(CC)CCCC(C)Nc1ccnc2cc(Cl)ccc12 (centres unmarked) [Chloroquine, reference compound]	–	–	–	–	IC50 (P. falciparum Dd2): 696 nM; IC50 (P. falciparum 3D7): 77.8 nM
O=C(N[C@H](Cc1c[nH]c2ccccc12)C(=O)O)C(=O)c1c[nH]c2cc(Br)ccc12 [Compound 48, 6-bromoindolyl-3-glyoxyl-D-tryptophan]	91.1	83.6	20.8	2.0	% Inhibition @ 60 µM, HEK293 (HEK293 cells): 16.0%; % Inhibition @ 60 µM, Dd2 (P. falciparum Dd2): 97.5%; % Inhibition @ 60 µM, 3D7 (P. falciparum 3D7): 99.0%
O=C(N[C@@H](Cc1ccc(O)cc1)C(=O)O)C(=O)c1c[nH]c2ccc(Br)cc12 [Compound 49, 5-bromoindolyl-3-glyoxyl-L-tyrosine]	99.5	82.9	15.0	1.9	–
O=c1c2ccccc2[se]n1-c1ccccc1 [Ebselen, reference compound]	–	–	–	–	inhibition at 20 µM (SARS-CoV-2 3CLpro; read-out: % inhibition @ 20 µM, DTT): 0.2%; inhibition at 20 µM (SARS-CoV-2 3CLpro; read-out: % inhibition @ 20 µM, No DTT): 114%
CC(C)[C@H](NC(=O)C(=O)c1c[nH]c2cc(Br)ccc12)C(=O)O [Compound 55, 6-bromoindolyl-3-glyoxyl-L-valine]	88.9	105.0	6.8	3.0	–
N=C(N)NCCC[C@H](NC(=O)C(=O)c1c[nH]c2ccc(Br)cc12)C(=O)O [Compound 29, 5-bromoindolyl-3-glyoxyl-L-arginine]	100.8	88.8	13.8	2.4	–
N=C(N)NCCC[C@@H](NC(=O)C(=O)c1c[nH]c2ccc(Br)cc12)C(=O)O [Compound 30, 5-bromoindolyl-3-glyoxyl-D-arginine]	96.2	86.3	10.1	1.0	–
CC(C)[C@@H](NC(=O)C(=O)c1c[nH]c2ccc(Br)cc12)C(=O)O [Compound 54, 5-bromoindolyl-3-glyoxyl-D-valine]	105.4	97.3	1.3	1.0	–
